Where two headings read alike, the source gives them in different places.
Tests used:
[1] = system: mammalian calcium channel; assay: Mammalian calcium channel assay (Fluo-4); assay type: cell-based, human; conditions: HEK 293T, carbachol treatment alone
From the text: Many laboratory bacterial efflux inhibitor tool compounds cannot be used in the clinical setting because they limit mammalian ion channel activity. […] Thus, we measured the effects of ABEPI1 and ABEPI2 on mammalian calcium channel functions using Fluo-4 Direct Calcium Channel Assay kits (Life Technologies, Carlsbad, Calif.), in which the dye Fluo-4 was used to measure changes in mammalian cytoplasmic Ca^2+ levels in response to the calcium channel stimulator, carbachol, in the absence and presence of test compound. […] Next, 2× Fluo-4 dye supplemented with Probenecid (5 mM) was added to each well and allowed to equilibrate for 1 hr at 37° C. To determine whether ABEPI1 or ABEPI2 affect Ca^2+ channel activity, Fluo-4 fluorescence measures (excitation 495nm; emission 516nm) were then taken every second for 15 sec.

[2] = system: A. baumannii strain 98-37-09; assay: MEC determination: potentiation of minocycline toward serum grown A. baumannii; assay type: cell-based, Acinetobacter baumannii; conditions: for Log-reduction Colony Forming Units (ml^−1): 1×MEC of compound plus minocycline in serum, versus minocycline alone, plating; for MEC: lowest concentration inhibiting growth in 100% human serum with 0.5 μg ml^−1 minocycline, 48 hr
[3] = system: A. baumannii strain 98-37-09; assay: Cellular accumulation of minocycline (HPLC, triple-quadrupole MS); assay type: cell-based, Acinetobacter baumannii; conditions: human serum with 0.5 μg mL^−1 minocycline plus test compound (0.5×MEC, 1×MEC), 48 hours
human HepG2 cells = assay: MTT cell viability (cytotoxicity) assay
Description: To distinguish putatively non-toxic from human cytotoxic compounds, conventional 3-(4,5-dimethylthiazol-2yl)-2,5-diphenyltetrazolium bromide (MTT) cell viability assays (American Type Culture Collection, Manassas, Va.) were performed for each compound of interest at 1× and 4× their MEC. Briefly, human HepG2 cells were grown to approximately 1×10^6 cells per well in Dulbecco's Modified Eagle Media supplemented with 10% fetal bovine serum (Invitrogen, Carlsbad, Calif.) then treated with 1× or 4× the MEC of the indicated […] Cell viability was measured following the addition of the tetrazolium salt (MTT) as per the manufacturer's recommendations; cells challenged with 50 ug ml^−1 Mitomycin C (Sigma Aldrich) and mock-treated cells served as positive and negative controls, respectively.

[4] = system: A. baumannii strain 98-37-09; assay: Potentiation of ciprofloxacin toward serum grown A. baumannii; assay type: cell-based, Acinetobacter baumannii; conditions: for Potentiate Ciprofloxacin A. baumannii (value in parentheses: log reduction of viability): 1×MEC with ciprofloxacin versus ciprofloxacin alone, plating; for Potentiate Ciprofloxacin A. baumannii: 100% human serum, 0.125 μg ml^−1 ciprofloxacin, 1× or 2× MEC, 48 hour, growth inhibition
From the text: As a means to further prioritize non-toxic compounds of interest based on their therapeutic promise, it was considered that broad spectrum antimicrobial efflux pump inhibitors may be more clinically valuable than narrow-spectrum agents that only potentiate the activity of a limited number of antibiotics or that display activity toward a single bacterial species. […] To do so, 1×10^5 A. baumannii strain 98-37-09 were inoculated into individual wells of microtiter plates containing 100% human serum supplemented with 0.125 μg ml^−1 ciprofloxacin and 0, 1×, or 2× the compound's MEC, as defined by the lowest concentration needed to potentiated minocycline's antimicrobial effects (above). Plates were incubated for 48 hour at which point each compound's ability to potentiate ciprofloxacin was measured, as growth inhibition.

P. aeruginosa PA01 = assay: Potentiation of ciprofloxacin toward serum grown P. aeruginosa; assay type: cell-based, Pseudomonas aeruginosa; conditions: PA01 in 100% human serum, 1×MEC, ciprofloxacin 0 to 2 μg ml^−1
Description: To do so, PA01 was inoculated into individuals wells of a microtiter plate containing 100% human serum supplemented with 1×MEC of test compound and increasing concentrations of ciprofloxacin (0 to 2 μg ml^−1) and cell viability was measured.

[5] = system: A. baumannii strain 98-37-09; assay: Ethidium bromide efflux assay; assay type: cell-based, Acinetobacter baumannii; conditions: for ethidium bromide fluorescent signal in comparison to mock treated cells: 10 μg ml^−1 ethidium bromide, 90 min; for cellular ethidium fluorescence compared with PAβN: time course after treatment
Description: To distinguish whether the antimicrobial potentiation of ABEPI1 and ABEPI2 correlates with the inhibition of A. baumannii's efflux properties, conventional ethidium bromide efflux assays were performed in the presence and absence of each compound. The assay is predicated upon the fluorescent properties of ethidium bromide during intercalation into cellular nucleic acids, whereby efflux active cells display limited intracellular ethidium bromide accumulation and, consequently, low fluorescence. Conversely, efflux inhibition leads to increased cellular ethidium bromide levels and correspondingly high fluorescence relative to efflux proficient cells. Bacterial ethidium bromide efflux activity assays were used to measure the efflux inhibitory properties of compounds of interest. For assays, an overnight culture of A. baumannii strain 98-37-09 was diluted (1:100) into 100% human serum or fresh LB and grown to mid-exponential phase. Cell pellets were collected via centrifugation 900×g for 20 minutes, washed 3× with 20 mM sodium phosphate buffer and resuspended to an OD600nm=0.2 in sodium phosphate buffer. Approximately 1×10^6 CFU were loaded into individual wells of 96-well white-bottom plates, mixed with 10 μg ml^−1 ethidium bromide, and ethidium fluorescence (excitation 530nm; emission 600nm) was measured every 5 min for 90 min on a Spectramax5 fluorimeter (Molecular Devices, Sunnyvale, Calif.). To determine if the putative efflux pump inhibitors affected ethidium bromide efflux, cells were treated with the indicated amount of compound of interest or the efflux pump inhibitor, PaβN, two minutes after fluorescence monitoring began.

A. baumannii = assay: Antibiotic susceptibility assay in LB medium or 100% human serum; assay type: cell-based, Acinetobacter baumannii
Description: The antibiotic susceptibility of A. baumannii and Pseudomonas aeruginosa grown in either LB medium or 100% human serum was measured according to the method described below. Briefly, the indicated bacterial species/strain was grown overnight in LB medium, diluted into fresh medium (1:100 dilution) and grown to mid-exponential phase (OD600nm=0.4 to 0.5) at 37° C. with aeration. […] To quantify the antimicrobial effects of each antibiotic toward bacteria grown in LB or serum, well constitutes were serially diluted in PBS and plated on LB agar to enumerate the CFU mL^−1.

Compound | Log-reduction Colony Forming Units (ml^−1) [2] [log] | MEC [2] [µg/mL] | Minocylcine Per Cell (femtomoles cell^−1) [3] [femtomoles cell^−1] | Potentiate Ciprofloxacin A. baumannii (value in parentheses: log reduction of viability) [4] | Potentiate Ciprofloxacin A. baumannii [4] | Potentiate Ciprofloxacin P. aeruginosa (P. aeruginosa PA01) | ethidium bromide fluorescent signal in comparison to mock treated cells [5] | further results
C[N+](C)(C)CCOC(N)=O [Carbachol, carbamylocholine chloride] |  |  |  |  |  |  |  | increase in cytoplasmic Ca^2+ levels [1]: approximately 2.3 fold
NS(=O)(=O)c1ccc(/N=C/c2ccc(Cl)cc2)cc1 [ST009675] | 6.73 | 2 | 5.88E−04 | (2.28) log | Yes | Yes | significantly increased signal | % Viability (human HepG2 cells; human, 48 h, 4 ×MEC): 96.6%; Potentiate Ciprofloxacin P. aeruginosa (P. aeruginosa PA01; listed as ABEPI1): potentiated the activity of ciprofloxacin; cellular ethidium fluorescence compared with PAβN [5]: levels exceeding that of PABN within the first 20 min of treatment
COC(=O)c1ccccc1NC(=O)CN1C(=O)c2ccccc2S1(=O)=O [ST058165] | 6.27 | 32 | 1.11E−04 | (1.53) log | Yes | No |  | % Viability (human HepG2 cells): 76.9%
CC(C)(C)NC(=O)CSc1nnnn1C(C)(C)C [ST060273] | 6.53 | 32 | 6.84E−06 | (4.36) log | Yes | Yes | significantly increased signal | % Viability (human HepG2 cells; human, 48 h, 4 ×MEC): 90.1%; cellular ethidium fluorescence compared with PAβN [5]: essentially identical to those of PAβN until approximately 35 min post-treatment
O=C(O)c1cn(C2CC2)c2cc(N3CCNCC3)c(F)cc2c1=O [ciprofloxacin] |  |  |  |  |  |  |  | susceptibility of serum grown versus LB grown cells (A. baumannii; strain 98-37-09, ciprofloxacin ≤1 μg ml^−1): significantly (P<0.001) less susceptible
COC(=O)[C@H]1[C@H]2C[C@@H]3c4[nH]c5cc(OC)ccc5c4CCN3C[C@H]2C[C@@H](OC(=O)c2cc(OC)c(OC)c(OC)c2)[C@@H]1OC [reserpine] |  |  |  |  |  |  |  | restoration of tigecycline susceptibility in serum (A. baumannii; strain 01-12-05, addition of efflux pump inhibitor): partially restored; restoration of ciprofloxacin susceptibility in serum (A. baumannii; strain 98-37-09, serum supplemented with efflux pump inhibitor): Ciprofloxacin susceptibility could be restored
CN(C)[C@@H]1C(O)=C(C(N)=O)C(=O)[C@@]2(O)C(O)=C3C(=O)c4c(O)cccc4[C@@](C)(O)[C@H]3C[C@@H]12 [tetracycline] |  |  |  |  |  |  |  | cell viability, LB grown (A. baumannii; 4-16 μg ml^−1 tetracycline, LB): < 1×10^1 colony forming units
CN(C)c1cc(NC(=O)CNC(C)(C)C)c(O)c2c1C[C@H]1C[C@H]3[C@H](N(C)C)C(O)=C(C(N)=O)C(=O)[C@@]3(O)C(O)=C1C2=O [tigecycline] |  |  |  |  |  |  |  | concentration with clear antimicrobial activity (A. baumannii; strain 01-12-05, LB medium): ≥ 1 µg/mL; susceptibility during growth in serum (A. baumannii; strain 01-12-05, human serum): highly-resistant
phenylalanine arginine beta naphthylamide [PAβN, reference compound] |  |  |  |  |  |  | significantly increased cellular ethidium bromide accumulation | restoration of tetracycline susceptibility in serum (A. baumannii; serum grown, efflux pump inhibitor present): partially restored

Source: patent US10471028B2, “Small molecule efflux pump inhibitors” (UNIVERSITY OF ROCHESTER, priority 2014, dated 2019)
